Laboratory results published in patent publication US20220213135A1, “DERIVATIVES OF GLYCERO-MANNO-HEPTOSE PHOSPHATE AND THEIR USE IN MODULATING AN IMMUNE RESPONSE” (Shanghai Yao Yuan Biotechnology Co., Ltd., priority 2019, published 2022).

Assays:
[1] = system: primary mouse hepatocytes (C57/b6); test: CCL2 and CCL7 gene expression by qPCR in primary mouse hepatocytes treated for 4 hours; format: cell-based; settings: for CCL7 gene expression, fold change compared to no treatment (PBS) control: Compound 2 2 nanomolar to 200 nanomolar, Compound 1 200 nanomolar and 2 micromolar; for CCL2 gene expression, fold change compared to no treatment (PBS) control: normalized to GAPDH, Compound 2 200 picomolar to 200 nanomolar, Compound 1 up to 2 micromolar
Method: FIG. 2. Compound 2 has unexpected biological activity in liver cells compared to H1BADP (Compound 1). Primary hepatocytes were isolated from fresh mouse livers of C57/b6 background. Cells were cultured in serum-free medium overnight before treatment with either Compound 1 or Compound 2 for 4 hours. Cells were harvested and mRNA expression analyzed by qPCR.
The reference compound, referred to herein also as “Compound 1” (HMP1BP) is an intermediate in the H1b-ADP biosynthetic pathway generated by the dephosphorylation of HBP (FIG. 1). Derivatives of Compound 1 were generated and their activities tested in primary mouse hepatocytes (C57/b6). […] Hepatocytes were first isolated from fresh C57/b6 mouse livers, transferred to serum-free medium, and cultured overnight before treatment with Compound 1 or Compound 2 for 4 hours. Liver cells were then harvested, the mRNA isolated and gene expression of C—C motif chemokine ligand 2 (CCL2) and C—C motif chemokine ligand 7 (CCL7) was analyzed by qPCR and presented as fold change compared to a no treatment (PBS) control. Gene expression was normalized to the expression of the housekeeping gene, glyceraldehyde-3-phosphate dehydrogenase (GAPDH). […] In this assay.

[2] = system: chemokine and cytokine expression in liver cells; test: Chemokine and cytokine gene expression by qPCR in liver of mice after oral gavage of HMP1BP derivatives; format: in vivo, mouse; settings: C57 female mice, 1 mg/kg oral gavage
Method: FIG. 5A-B. Oral administration of HMP1BP derivatives activates chemokine and cytokine expression in liver cells. 8 week old C57 female mice were administered saline or the indicated compounds by oral gavage, Compounds 2-7 (1 mg·kg) (A) or compounds 9, 10 (1 mg/kg), 11, 13 and 14 (0.1 mg/kg) (B) were tested. Four hours after administration of saline or compound, organs were dissected and gene expression was analyzed by qPCR for CCL2, CCL7, CXCL1, CXCL10, IFNb, IL1b, IL6, and TNFa (A) or CCL2 and CCL7 (B).
Several additional Compound 1 derivatives were tested for cytokine and chemokine gene induction in hepatocytes. […] Mice were treated as described above. Briefly, 8 week-old C57 female mice were separately administered (1 mg/kg) either one of Compounds 2-7 or a saline/DMSO control by oral gavage and 4 hours later the livers were dissected and gene expression analyzed by qPCR. The gene expression results were normalized to GADPH expression. […] The additional genes tested in this experiment are: CXCL1, encoding C—X—C motif chemokine ligand 1; CXCL10, encoding C—X—C motif chemokine ligand 10; IFNb, encoding interferon beta; IL-1b, encoding interleukin 1 beta; IL6, encoding interleukin 6; and TNFα, encoding tumor necrosis factor alpha. […] All the derivatives induced CCL2 and CCL7 more than 20-fold above the control. Compound 2 induced CCL2, CCL7, CXCL10, IFNb, IL6 and TNFα each more than 20-fold.

[3] = target: T1, ALPK1 (Mus musculus, UniProt Q9CXB8); test: Liver chemokine gene expression by qPCR in ALPK1 knockout and wildtype mice after oral treatment; format: in vivo; set-up: from tissue; host or cells: mouse liver (in vivo, wildtype vs ALPK1 knockout mice); settings: WT mice, oral 0.5 mg/kg, 4 hours, normalized to PBS treated WT mice
T1 sequence (Q9CXB8 1-1231): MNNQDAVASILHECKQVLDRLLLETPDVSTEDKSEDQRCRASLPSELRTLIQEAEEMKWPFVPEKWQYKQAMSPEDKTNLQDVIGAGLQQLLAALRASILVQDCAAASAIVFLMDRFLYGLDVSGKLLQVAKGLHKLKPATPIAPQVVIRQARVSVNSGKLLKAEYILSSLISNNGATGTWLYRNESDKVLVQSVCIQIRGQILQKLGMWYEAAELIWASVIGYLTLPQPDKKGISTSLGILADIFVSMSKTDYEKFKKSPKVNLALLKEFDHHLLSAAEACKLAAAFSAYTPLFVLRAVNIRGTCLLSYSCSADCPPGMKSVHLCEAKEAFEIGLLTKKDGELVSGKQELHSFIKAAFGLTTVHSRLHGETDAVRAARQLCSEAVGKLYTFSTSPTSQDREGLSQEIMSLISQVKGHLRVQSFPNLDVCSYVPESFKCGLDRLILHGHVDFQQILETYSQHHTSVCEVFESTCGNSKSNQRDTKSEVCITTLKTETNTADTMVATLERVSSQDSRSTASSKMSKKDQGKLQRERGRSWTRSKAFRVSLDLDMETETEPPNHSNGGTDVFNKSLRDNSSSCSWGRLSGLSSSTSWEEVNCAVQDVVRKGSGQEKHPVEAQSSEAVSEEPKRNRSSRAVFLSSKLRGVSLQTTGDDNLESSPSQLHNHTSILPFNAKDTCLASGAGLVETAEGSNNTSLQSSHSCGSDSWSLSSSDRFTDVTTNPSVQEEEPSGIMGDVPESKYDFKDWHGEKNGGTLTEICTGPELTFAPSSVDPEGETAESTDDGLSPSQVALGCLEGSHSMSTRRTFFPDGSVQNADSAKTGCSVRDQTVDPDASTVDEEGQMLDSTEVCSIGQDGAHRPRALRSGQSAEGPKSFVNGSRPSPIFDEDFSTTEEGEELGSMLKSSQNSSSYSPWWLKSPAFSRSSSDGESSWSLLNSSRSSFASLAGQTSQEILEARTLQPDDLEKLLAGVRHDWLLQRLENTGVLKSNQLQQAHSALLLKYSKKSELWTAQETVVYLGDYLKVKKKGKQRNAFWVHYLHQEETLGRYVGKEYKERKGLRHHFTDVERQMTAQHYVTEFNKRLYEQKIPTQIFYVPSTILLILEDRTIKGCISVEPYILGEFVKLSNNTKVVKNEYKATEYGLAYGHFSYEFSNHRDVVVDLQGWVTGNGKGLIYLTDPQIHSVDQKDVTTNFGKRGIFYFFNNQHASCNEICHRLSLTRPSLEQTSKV
Method: FIG. 3. Compound 2 induces chemokine and cytokine expression via ALPK1. ALPK1 knockout (KO) mice and wildtype (WT) control were treated orally with either PBS or Compound 2 (0.5 mg/kg). Four hours after treatment, livers were dissected for gene expression analysis by qPCR. Expression was normalized to PBS treated WT mice.
ALPK1 knockout (KO) mice and wildtype (WT) control were treated orally with either PBS or Compound 2 (0.5 mg/kg). Four hours after treatment, livers were dissected for gene expression analysis by qPCR. Expression was normalized to PBS treated WT mice.

[4] = system: hepatitis B virus AAV8-1.3 HBV; test: AAV8-1.3 HBV mouse model: serum HBV DNA (qPCR), HBsAg and HBeAg (ELISA); format: in vivo; settings: male C57BL/6 mice, 1 mg/kg per dose, vs PBS
Method: FIG. 6A-C. Compound 2 reduces hepatitis infection in murine model. Compound 2 was administered (1 mg/kg PO QD) and serum levels of HBV (A), HbsAg (B), or HbeAg (C) were measured after 7 days.
On day 1, male C57BL/6 mice were intravenously (i.v) injected with hepatitis B virus AAV8-1.3 HBV (1×10^11 v/g) (Beijing Five Plus Molecular Medicine Institute). On day 56 post-injection, each mouse was treated with Compound 2 two times per week (1 mg/kg per dose) or PBS. After seven days of treatment (at day 63 post injection), mouse serum was collected for analysis by qPCR (HBV DNA) and ELISA for Hepatitis B virus surface antigen (HBsAg) and Hepatitis B e-antigen (HBeAg). […] Specifically, the Compound 1 derivatives show tissue-specific liver cell activity and strong induction of cytokine and chemokine genes while also reducing HBV DNA and antigen titers in the serum of infected mice.

[5] = system: CCL2 and CCL7 gene expression in kidney, esophagus, liver, lung, brain, and stomach; test: CCL2 and CCL7 gene expression by qPCR in organs of mice after oral gavage; format: in vivo, mouse; settings: 4 hours
Method: FIG. 4. Compound 2 activates cytokine expression only in the liver. 8 week old C57 females were administrated Compound 2 by oral gavage in 200 ul of Saline and 1.5% DMSO as diluent. Four hours later, organs were dissected and gene expression of CCL2 and CCL7 was analyzed by qPCR in kidney, esophagus, liver, lung, brain, and stomach.
In this experiment, CCL7 was expressed more than 50-fold above the PBS control and CCL2 was expressed more than 20-fold above the control.

[6] = after seven days of treatment, ELISA
[7] = liver, 8 week-old C57 female mice

`O=P(O)(O)O[C@@H]1O[C@H]([C@H](O)CO)[C@@H](O)[C@H](O)[C@@H]1O` [Compound 1, (2S,3S,4S,5S,6R)-6-((R)-1,2-dihydroxyethyl)-3,4,5-trihydroxytetrahydro-2H-pyran-2-yl dihydrogen phosphate] was tested, and the “CCL2 gene expression at the highest concentration tested” value ([1]; 2 micromolar) was “only similar to that induced by the lowest concentration (200 picomolar) of Compound 2”, the “CCL7 gene expression, fold change compared to no treatment (PBS) control” value [1] was “only a much smaller induction in CCL7 gene expression” and the “CCL2 gene expression, fold change compared to no treatment (PBS) control” value [1] was “did not significantly induces CCL2 expression relative to the PBS control except at the highest concentration tested”.

With `CC(=O)OC[C@H](F)C1O[C@@H](OP(=O)(N[C@@H](C)C(=O)OC(C)C)Oc2ccccc2)C(OC(C)=O)[C@@H](OC(C)=O)[C@@H]1OC(C)=O` (stereo partly drawn) [Compound 4, (2S,3S,4S,5S,6S)-2-((S)-2-acetoxy-1-fluoroethyl)-6-(((((S)-1-isopropoxy-1-oxopropan-2-yl)amino)(phenoxy)phosphoryl)oxy)tetra-hydro-2H-pyran-3,4,5-triyl triacetate] the IFNb gene induction ([2]; 4 hours (FIG. 5A)) was “strong inductive effect”.

With `CC(=O)OC[C@H](F)[C@H]1O[C@@H](OP(=O)(Oc2ccccc2)Oc2ccccc2)[C@@H](OC(C)=O)[C@@H](OC(C)=O)[C@@H]1OC(C)=O` [Compound 2, (2S,3S,4S,5S,6S)-2-((S)-2-acetoxy-1-fluoroethyl)-6-((diphenoxyphosphoryl)oxy)tetrahydro-2H-pyran-3,4,5-triyl triacetate] the “CCL7 gene expression, fold change compared to no treatment (PBS) control” value [1] was “induced in a dose-dependent manner”, the “CCL2 gene expression, fold change compared to no treatment (PBS) control” value [1] was “significantly induced CCL2 expression in a dose-dependent manner” and the “expression of CCL2, CCL3, CCL7, and CXCL1 in liver” value [3] was “induce the expression”. For the same compound, the “HBV DNA copy number in serum” value ([4]; after seven days of treatment (day 63 post injection), qPCR) was “significantly reduced HBV DNA copy number”, the “Hepatitis B e-antigen (HBeAg) in serum” value [4, 6] was “decreased compared to the PBS control” and the “Hepatitis B surface antigen (HBsAg) in serum” value [4, 6] was “decreased compared to the PBS control”. The “cytokine and chemokine gene expression in other organs” value ([5]; kidney, esophagus, lung, brain, stomach) was “No other organ tissue analyzed showed cytokine and chemokine gene expression”, the “CCL2 gene expression above the control” value [5, 7] was “more than 20 fold” and the “CCL7 gene expression above the PBS control” value [5, 7] was “more than 50 fold”. The “CCL7 gene induction above the control” value ([2]; 4 hours (FIG. 5A)) was “more than 20 fold”, the CXCL10 gene induction ([2]; 4 hours (FIG. 5A)) was “more than 20 fold” and the IFNb gene induction ([2]; 4 hours (FIG. 5A)) was “more than 20 fold”. For the same compound, the IL6 gene induction ([2]; 4 hours (FIG. 5A)) was “more than 20 fold”, the TNFα gene induction ([2]; 4 hours (FIG. 5A)) was “more than 20 fold” and the “CCL2 gene induction above the control” value ([2]; 4 hours, normalized to GADPH (FIG. 5A)) was “more than 20 fold”.
